The values below come from US20050250850A1, “Amino acid composition promoting collagen synthesis” (Ajinomoto Co., Inc., priority 2004, published 2005).

For this assay, the system named is collagen synthesis in skin. The experiment in a line: Rate of collagen synthesis in rat skin (incorporation of stable isotope-labelled L-phenylalanine into collagen). It counts as in vivo, SD (IGS) male rats. As to conditions: rats fed protein-free food for one week, continuous administration into the jugular vein for approx. three and a half hours, neutral-salt-soluble newly synthesized collagen, t-test vs saline, * p<0.05, FIG. 1.

Description: SD (IGS) male rats consisting of 4 to 6 individuals per group were fed protein-free food (0% casein) for one week to groups of, after which the rats were used in the following experiments.
The administration fluids were each administered continuously into the jugular vein for approximately three and a half hours. Stable isotope-labelled L-phenylalanine was used to determine the rate of collagen synthesis by measuring the labelled percentage of stable isotope-labelled L-phenylalanine that had been incorporated in collagen protein within a fixed period of time. Skin was used as the tissue, and fractions of newly synthesized collagen dissoluble in a neutral salt solution were used as the collagen.
The group administered with physiological saline was used as the control, and assay was conducted by t-test. The symbol * in the figure represents p<0.05. […] Rate of collagen synthesis=ΔEt/ΔEf/ΔT (1) • ΔEt: labelled percentage of the phenylalanine in collagen fractions per unit time • ΔEf: labelled percentage of the free phenylalanine in the skin tissue fluid per unit time • ΔT: unit time

Take `NC(=O)CC[C@H](N)C(=O)O` [L-glutamine]: the “rate of collagen synthesis in comparison with the group administered with physiological saline” value was “enhancement from saline was not observed”.
